Assay results from patent publication US20080175813A1, “NOVEL ATTRACTANTS FOR VESPID WASPS” (PHEROTECH INTERNATIONAL INC., priority 2007, published 2008).

How the values were obtained:
Format in all cases: in vivo
Vespula pennsylvanica [1] = test: Experiment 2: field trapping, apple pomace vs chopped dried apples as supplements for heptyl butyrate; conditions: Experiment 2, N = 15, 15-18 Sep. 2006, 12 g supplement in plastic mesh in capture water
Experimental: The experiment was run for 3 days in Tilbury Industrial Park in Delta, B.C. from 8-11 Sep. 2006. Large 2 L Oak Stump traps, with a single transverse entry tube, and 300-350 mL of water with 2-3 drops of liquid detergent added in the bottom of the interior chamber, were hung at eye level from trees or woody bushes. Traps for each of three treatments were deployed in 12 randomized complete blocks, with ≧5 m between traps. […] Experiment 2, with 15 replicates, was run at the same location as Experiment 1 from 15-18 Sep. 2006. […] The apple pomace was obtained from Agrisource Food Products Inc., Richmond, B.C.

Vespula pennsylvanica [2] = test: Experiment 4: field trapping, apple pomace vs apple juice as supplements for heptyl butyrate; conditions: Experiment 4, N = 12, set up 29 Sep. 2006, collections Sept 30, Oct 2, Oct 4; 5 g apple pomace; apple juice replacing capture water
Source text: A final 12-replicate experiment was set up as above, and compared wet apple pomace with apple juice. The three treatments were: 1) heptyl butyrate alone, 2) heptyl butyrate plus apple juice, and 3) heptyl butyrate plus apple pomace. In the second treatment, apple juice (Sun-Rype Products Ltd., Kelowna, B.C.) with 2-3 drops of detergent added replaced the water-detergent capture medium in the bottom of the interior trap chamber. In the third treatment, the amount of apple pomace in the plastic mesh bag immersed in the water-detergent capture medium in the bottom of the interior chamber was reduced to 5 g, which is a realistic operational dose. The experiment was set up on 29 Sep. 2006, and captured wasps were removed from the traps and counted on September 30, October 2 and October 4.

Vespula pennsylvanica [3] = test: Experiment 3: field trapping, wet vs dry apple pomace as supplements for heptyl butyrate; conditions: Experiment 3, N = 12, 21-22 Sep. 2006, 12 g apple pomace in mesh bag, suspended dry or immersed in capture water
Experimental: The experiment ran from 21-22 Sep. 2006, at the same location as the first two experiments. All other experimental conditions were the same as above. Twelve replicates of three treatments were tested: 1) heptyl butyrate alone, 2) heptyl butyrate plus a mesh bag containing 12 g of apple pomace suspended dry from the trap lid along with the heptyl butyrate lure, and 3) heptyl butyrate plus 12 g of apple pomace in a mesh bag immersed in the water-detergent capture medium in the bottom of the interior chamber.

Vespula pennsylvanica [4] = test: Experiment 1: field trapping in Oak Stump traps, chopped dried apples as supplement for heptyl butyrate; conditions: Experiment 1, N = 12, Oak Stump traps, 8-11 Sep. 2006, 12 g chopped dried apples in capture water
Experimental: The experiment was run for 3 days in Tilbury Industrial Park in Delta, B.C. from 8-11 Sep. 2006. Large 2 L Oak Stump traps, with a single transverse entry tube, and 300-350 mL of water with 2-3 drops of liquid detergent added in the bottom of the interior chamber, were hung at eye level from trees or woody bushes. Traps for each of three treatments were deployed in 12 randomized complete blocks, with ≧5 m between traps. […] Almost all captured wasps were western yellowjackets, Vespula pennsylvanica. The very few Polistes spp. captured (no more than two per trap, with most traps having none) were not counted.

For `CCCCCCCOC(=O)CCC` [Heptyl butyrate alone, heptyl butyrate], the “MEAN NUMBER OF WASPS CAPTURED ± SE” value (Vespula pennsylvanica [1]) was 15.7 ± 3.4 ab, the “MEAN NUMBER OF WASPS CAPTURED ± SE” value (Vespula pennsylvanica [2]) was 24.3 ± 6.7 a and the “MEAN NUMBER OF WASPS CAPTURED ± SE” value (Vespula pennsylvanica [3]) was 9.8 ± 2.0 ab. The “MEAN NUMBER OF WASPS CAPTURED ± SE” value (Vespula pennsylvanica [4]) was 72.8 ± 13.9 b and the “MEAN NUMBER OF WASPS CAPTURED ± SE” value (Vespula pennsylvanica [4]; listed as heptyl butyrate) was 73.
